Reference: paper PMC11313180 (International Journal of Molecular Sciences, 2024)
Read-outs that look alike come from different tables or passages of the source.

Key:
[1] = tested on: caspase 3/7 in T47D cells; assay: Caspase 3/7 activation assay, T47D; assay type: cell-based, human; settings: 24 h; 1 µM exemestane, 0.5 mM or 1 mM (R)-α-lipoic acid
Protocol: (§1) To analyze the compound-induced activation of capases 3 and 7, the CellEvent caspase 3/7 green detection reagent (Thermo Scientific, Wesel, Germany) was used according to the manufacturer’s instructions. […] After 24 h incubation, medium was removed, and cells were stained with 50 µL of CellEvent caspase 3/7 green detection reagent (2 µM in PBS supplemented with 5% heat-inactivated FBS). Cells were incubated for 30 min at 37 °C in a humidified incubator before imaging by using the Thermo Fisher ArrayScan XTI high content screening (HCS) system with a 10× magnification (Thermo Scientific). Hoechst 33342 was added for nuclei staining.

MCF-7 cells = tested on: MCF-7 cells; set-up: method as in PMID 25738757; settings: ref [30]; read-out: IC50 in MCF-7 cells, literature; cited from earlier work
T47D [2] = assay: MTT cell viability assay, T47D; assay type: cell-based, human; settings: for IC50: Homo sapiens, T47D
Protocol: (§2) MTT assays were performed as previously described. […] After incubation time, medium was replaced by MTT (solution of 5 mg/mL 3-(4,5-dimethylthiazol-2-yl)-2,5-diphenyl-tetrazoliumbromidin in phosphate buffered saline, Serva, Heidelberg, Germany).

MCF-7 [3] = assay: Cell proliferation by counting Hoechst 33342-stained nuclei, MCF-7; assay type: cell-based, human; settings: 1 µM, 72 h
Protocol: (§3) Figure 3 Cell proliferation of MCF-7 (a) and T47D cells (b) measured via Hoechst 33342 staining. […] Shown is one representative experiment out of a series of at least three experiments each performed with 3 replicates. Data are mean ± SD. Statistical comparison was performed using a t-test. Levels of significance: ** (p ≤ 0.01); **** (p ≤ 0.0001). Exe = exemestane. (R)-LA = (R)-α-lipoic acid.

MCF-7 [4] = assay: Long-term (10 days) live/dead proliferation assay, calcein AM and Hoechst 33342, MCF-7; assay type: cell-based, human; settings: 1 µM exemestane, 1 mM (R)-α-lipoic acid
Protocol: (§4) Cells were seeded on day one in 96-well plates. […] Then, cells were stained with calcein AM (Millipore Corporation, Billerica, MA, USA) and Hoechst 33342 (Tocris Bioscience, Bristol, UK) for 30 min and fluorescence images monitored by Leica DMi8 Thunder Imager (Leica Microsystems CMS GmbH, Wetzlar, Germany). Five images per well were monitored randomly. Calcein AM- and Hoechst 33342-stained area of the images (i.e., live proliferating cells) were evaluated.

T47D [5] = assay: Cell proliferation by counting Hoechst 33342-stained nuclei, T47D; assay type: cell-based, human; settings: 1 µM, 72 h
Protocol: as §3

[6] = tested on: caspase 3/7 in MCF-7 cells; assay: Caspase 3/7 activation assay, MCF-7; assay type: cell-based, human; settings: 24 h; 1 µM exemestane, 0.5 mM or 1 mM (R)-α-lipoic acid
Protocol: as §1

T47D [7] = assay: Long-term (10 days) live/dead proliferation assay, calcein AM and Hoechst 33342, T47D; assay type: cell-based, human; settings: 1 µM exemestane, 1 mM (R)-α-lipoic acid
Protocol: as §4

T47D [8] = assay: Immunoblotting, T47D; assay type: cell-based, human; settings: 48 h; 1 mM (R)-α-lipoic acid, 1 µM exemestane
Protocol: (§5) A quantity of 20 or 40 µg of total protein as well as, from PageRuler Prestained Protein Ladder, 10–180 kDA (Thermo Scientific, Wesel, Germany), were resolved by SDS-Page (12% polyacrylamide gel) and transferred to polyvinylidene fluoride membrane (Millipore Corporation, Billerica, MA, USA). Blots were incubated with primary antibodies against acetylated a -tubulin (Cat. No. sc-23950), a -tubulin (Cat. No. sc-8035) (Santa Cruz Biotechnology, Heidelberg, Germany), acetyl histone h3 (Cat. No. 39140) and histone H3 (Cat. No. NB100-1669), ß-actine (Cat. No. sc-47778), p21 (AF1047), c-myk (Cat. No. MAB3696), APAF1 (Cat. No. MAB868), BIM (Cat. No. NBP1-76936), FOXO1 (Cat. No. C29H4), BCL-2 (Cat. No. AF810), and survivin (Cat. No. AF886). After another one-hour incubation with the appropriate HRP-conjugated secondary antibody, proteins were visualized by Intas Imager (Intas, Göttingen, Germany) using luminol reagent (Santa Cruz Biotechnology, Heidelberg, Germany).

MDA-MB-231 = assay: MTT cell viability assay, MDA-MB-231; assay type: cell-based, human; settings: for IC50: Homo sapiens
Protocol: MTT assays were performed as previously described. Cell numbers plated differed depending on each incubation time: MDA-MB-231 5000 c/w, MCF-7 5000 c/w (72 h) and 3000 c/w (120 h), T-47D 10,000 c/w (72 h) and 5000 c/w /120 h). After incubation time, medium was replaced by MTT (solution of 5 mg/mL 3-(4,5-dimethylthiazol-2-yl)-2,5-diphenyl-tetrazoliumbromidin in phosphate buffered saline, Serva, Heidelberg, Germany). After 10 min (MCF-7), 20 min (MDA-MB-231), and 30 min (T47D) and dissolving in DMSO (VWR, Langenfeld, Germany), absorbance was measured at 544 nm and 690 nm in a FLUOstar microplate reader (BMG LabTech, Offenburg, Germany).

MCF-7 [9] = assay: MTT cell viability assay, MCF-7; assay type: cell-based, human; settings: for IC50: Homo sapiens
Protocol: as §2

MCF-7 [10] = assay: Immunoblotting, MCF-7; assay type: cell-based, human; settings: 48 h; 1 mM (R)-α-lipoic acid, 1 µM exemestane
Protocol: as §5

In the case of `C=C1C[C@@H]2[C@H](CC[C@]3(C)C(=O)CC[C@@H]23)[C@@]2(C)C=CC(=O)C=C12` [exemestane], the “caspase 3/7 activation, T47D” value [1] is given as “no caspase 3/7 activation”, the IC50 (MCF-7 cells) is given as 30 µM and the “inhibition of cell viability, T47D” value (T47D [2]; 1 µM alone, 120 h MTT) is given as “no”. For the same compound, the “increase in potency by prolongation of incubation time, T47D” value (T47D [2]; 120 h versus 72 h MTT) was 1.8 fold, the IC50 (T47D [2]; 72 h, read-out: IC50 T-47D, 72 h MTT assay) was 50.6 ± 2.04 µM and the IC50 (T47D [2]; 72 h, read-out: IC50 of exemestane, T-47D (Figure 2b)) was 39.2 µM. The IC50 (T47D [2]; 120 h, read-out: IC50 of exemestane, T-47D (Figure 4b)) was 24.7 µM, the IC50 (T47D [2]; 120 h, IC50 ± SEM, read-out: IC50 T-47D, 120 h MTT assay) was 28.7 ± 0.75 µM and the “decrease of the number of nuclei, MCF-7” value (MCF-7 [3]) was “around 37%”. For the same compound, the “proliferation and doubling time over 10 days, MCF-7” value (MCF-7 [4]) was “difference between the untreated control and 1 µM exemestane is small”, the “decrease of the number of nuclei, T47D” value (T47D [5]) was “around 37%” and the “caspase 3/7 activation, MCF-7” value [6] was “no caspase 3/7 activation”. The “proliferation and doubling time over 10 days, T47D” value (T47D [7]) was “doubling time was not different between exemestane treatment and untreated condition”, the “expression of survivin and c-myk, T47D” value (T47D [8]) was “not affected” and the “less potent in MDA-MB-231 compared to MCF-7” value (MDA-MB-231; 72 h MTT IC50 ratio) was 3 fold. The “less potent in MDA-MB-231 compared to T47D” value (MDA-MB-231; 72 h MTT IC50 ratio) was 1.8 fold, the “increase in potency by prolongation of incubation time, MDA-MB-231” value (MDA-MB-231; 120 h versus 72 h MTT) was 1.7 fold and the IC50 (MDA-MB-231; MDA-MB-231, 72 h, read-out: IC50 MDA-MB-231, 72 h MTT assay) was 89.4 ± 2.86 µM. The IC50 (MDA-MB-231; MDA-MB-231, 120 h, IC50 ± SEM, read-out: IC50 MDA-MB-231, 120 h MTT assay) was 53.3 ± 3.62 µM, the “inhibition of cell viability, MCF-7” value (MCF-7 [9]; 1 µM alone, 120 h MTT) was 10.2% and the “increase in potency by prolongation of incubation time, MCF-7” value (MCF-7 [9]; 120 h versus 72 h MTT) was 1.8 fold. It also gave an IC50 (MCF-7 [9]; MCF7, 72 h, read-out: IC50 MCF-7, 72 h MTT assay) of 29.1 ± 1.3 µM, an IC50 (MCF-7 [9]; MCF7, 72 h, read-out: IC50 of exemestane, MCF-7 (Figure 2a)) of 42.6 µM and an IC50 (MCF-7 [9]; MCF7, 120 h, read-out: IC50 of exemestane, MCF-7 (Figure 4a)) of 16.9 µM. The IC50 (MCF-7 [9]; MCF7, 120 h, IC50 ± SEM, read-out: IC50 MCF-7, 120 h MTT assay) was 16.1 ± 0.84 µM and the “expression of survivin and c-myk, MCF-7” value (MCF-7 [10]) was “not affected”.
